# Experimental data as given in publication PMC4626104, “Inhibition on Proteasome β1 Subunit Might Contribute to the Anti-Cancer Effects of Fangchinoline in Human Prostate Cancer Cells” (PLoS ONE, 2015).
# What was measured:
# [1] = system: T1, proteasome of PC-3 tumor xenografts; test: Proteasome activities of tumor xenografts; format: in vivo, nude mice
# T1 construct: from tissue; host or cells: PC-3 tumour xenografts from Balb/c-nu-nu mice, homogenate supernatant
# Description: Cells were treated with either solvent control (0.1% DMSO), fangchinoline at different concentrations, or 1 μM carfilzomib (positive control) for 24 h at 37 °C. The enzymatic activities of cellular proteasome in cell lysate were measured as reported in our previous paper. Briefly, cells were harvested, washed with PBS and then lysed in proteasome activity assay buffer for 30 min at 4°C. The homogenate was then centrifuged at 12000 × g for 30 min at 4°C. The supernatant was collected as whole cell extract and the protein content in the supernatant was measured with the Bradford reagent. Catalytic activities of cellular proteasome were assayed by adding whole cell extract (containing 30 μg protein) to 100 μL of proteasome activity assay buffer containing 50 μM fluorogenic peptide substrates such as Z-LLE-AMC for detecting C-L activity, Z-ARR-AMC for detecting T-L activity or Suc-LLVY-AMC for detecting CT-L activity, respectively. The release of fluorogenic AMC from the peptide substrates was then measured as described above.
# Male nude immunodeficient mice Balb/c-nu-nu, aged 4 weeks, were purchased from Shanghai Experimental Animal Center. […] Tumor sizes were measured every 4 days using calipers and their volumes were calculated using a standard formula: width^2×length/2. […] Body weight was measured daily. […]
# [2] = target: T2, recombinant human proteasome β1 subunit (Homo sapiens, UniProt P28072); test: Surface plasmon resonance (Biacore) binding assay; conditions: Biacore, 25°C, 1:1 Langmuir model
# T2 construct: His-Tag; made in house; host or cells: Escherichia coli
# T2 sequence (P28072 1-239): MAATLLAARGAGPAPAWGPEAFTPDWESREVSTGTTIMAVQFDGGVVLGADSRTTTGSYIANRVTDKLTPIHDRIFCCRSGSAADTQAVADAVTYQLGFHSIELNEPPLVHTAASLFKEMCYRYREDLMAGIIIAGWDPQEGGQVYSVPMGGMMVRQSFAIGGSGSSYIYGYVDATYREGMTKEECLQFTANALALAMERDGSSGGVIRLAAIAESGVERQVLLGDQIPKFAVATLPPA
# Description: The recombinant human proteasome β1 subunit, product of PSMB6 gene, was expressed as His-Tag proteins using Escherichia coli, and then purified by affinity chromatography as reported in our previous study. The binding affinities of fangchinoline or tetrandrine to recombinant proteasome catalytic β1 subunit, were assayed in vitro using an Biacore 3000 instrument (Biacore AB, Rapsgatan 7, S-754 50 Uppsala, Sweden) as reported before. Briefly, recombinant proteasome β1 subunit protein was immobilized on a CM5 sensor chip as ligand in 11624.5 RU with N-ethyl-N’-(3-dimethylaminopropyl) carbodiimide and N-hydroxysuccinimide according to the standard primary amine-coupling procedures, and HBS-EP (10 mM HEPES, 150 mM NaCl, 3 mM EDTA, 0.005% (v/v) surfactant P20, pH 7.4) was used as the running buffer. Equilibration of the baseline was performed by a continuous flow of HBS-EP through the chip surface for 1 to 2 h. Biacore data were collected at 25°C with HBS-EP as the running buffer at a constant flow of 20 μL/min. Fangchinoline or tetradrine was serially diluted into the running buffer to 0, 2.4, 3.43, 4.90, 7.0, 10 and 20 μM. The samples were injected into the channels at a flow rate of 20 μL/min, followed by washing with the running buffer. The binding responses were recorded continuously in response units (RU) at a frequency of 1Hz as sensorgrams and presented as a function of time. The association (k a) and dissociation (k d) rate constants, the equilibrium dissociation constant ( KD=kd/ka ) were determined by analysis of the sensorgram-curves obtained at different concentrations of the compound by use of BIA evaluation software version 3.1 (Biacore) and the 1:1 Langmuir binding fitting model.
smiles,measurement,setting,value
COc1ccc2cc1Oc1ccc(cc1)C[C@H]1c3cc(c(OC)cc3CCN1C)Oc1c(O)c(OC)cc3c1[C@H](C2)N(C)CC3 [fangchinoline],Significance of decrease in proteasome activity of tumor xenografts,[1]; 50 mg/kg group,significant
same,Proteasome activities of tumor xenografts compared with vehicle control,[1]; fangchinoline-treated groups (25 and 50 mg/kg),decreased
same,Dissociation (k d),[2],0.0353 S^-1
same,Kd,[2]; read-out: Equilibrium dissociation (K D),4.68 µM
same,kon,"[2]; pH 7.4, read-out: Association (k a)",7550 M⁻¹ s⁻¹
